US8916183B2, “Pesticidal compositions and processes related thereto” (priority 2012, dated 2014)

Legend:
[1] = system: Corn Earworm (CEW) (Helicoverpa zea); assay: Bioassay on corn earworm (CEW), 128-well diet tray assay; assay type: in vivo; settings: Helicoverpa zea; corn earworm, 50 μg/cm^2; read-out: % Mortality CEW 50 μg/cm^2
Procedure: (§1) Certain molecules disclosed in this document were tested against BAW and CEW using procedures described in the following examples. In the reporting of the results, the “BAW & CEW Rating Table” was used (See Table Section).
Bioassays on CEW (Helicoverpa zea)
Bioassays on CEW were conducted using a 128-well diet tray assay. […] Trays were covered with a clear self-adhesive cover and held at 25° C., 14:10 light-dark for five to seven days. Percent mortality was recorded for the larvae in each well; activity in the eight wells was then averaged. The results are indicated in the table entitled “Table 5: Biological Results” (See Table Section).

[2] = system: Beet Armyworm (BAW) (Spodoptera exigua); assay: Bioassay on beet armyworm (BAW), 128-well diet tray assay; assay type: in vivo; settings: Spodoptera exigua; beet armyworm, 50 μg/cm^2; read-out: % Mortality BAW 50 μg/cm^2
Procedure: as §1
Bioassays on BAW (Spodoptera exigua)
Bioassays on BAW were conducted using a 128-well diet tray assay. […] Trays were covered with a clear self-adhesive cover and held at 25° C., 14:10 light-dark for five to seven days. Percent mortality was recorded for the larvae in each well; activity in the eight wells was then averaged. The results are indicated in the table entitled “Table 5: Biological Results” (See Table Section).

Compound	mortality at 50 µg/cm2 [1]	mortality at 50 µg/cm2 [2]
CCC(C)c1ccccc1N1C(=O)CCS/C1=N\N=C\c1ccc(-c2ncn(-c3ccc(OC(F)(F)F)cc3)n2)cc1 (stereo not drawn) [Compound 230C]	50 to 100%	50 to 100%
CCC(C)c1ccccc1N1/C(=N/N=C/c2ccc(-c3ncn(-c4ccc(OC(F)(F)F)cc4)n3)cc2)SCC1C (stereo not drawn) [Compound 163C]	50 to 100%	50 to 100%
COC(=O)C1CC(c2ccc(/C=N/N=C3\SCC(=O)N3c3c(C)cccc3C)cc2)=NN1c1ccc(OC(F)(F)F)cc1 (stereo not drawn) [Compound 110C]	50 to 100%	50 to 100%
CN(C)c1cccc(N2C(=O)CS/C2=N\N=C\c2ccc(-c3ncn(-c4ccc(OC(F)(F)F)cc4)n3)cc2)c1 [Compound 97C]	50 to 100%	50 to 100%
Cc1cc(C)c(N2/C(=N/N=C/c3ccc(-c4ncn(-c5ccc(OC(F)(F)F)cc5)n4)cc3)SCCC2C)c(C)c1 (stereo not drawn) [Compound 218C]	50 to 100%	50 to 100%
Cc1cccc(Cl)c1N1C(=O)CCS/C1=N\N=C\c1ccc(-c2ncn(-c3ccc(OC(F)(F)F)cc3)n2)cc1 [Compound 227C]	50 to 100%	50 to 100%
Cc1cs/c(=N\N=C\c2ccc(-c3ncn(-c4ccc(OC(F)(F)F)cc4)n3)cc2)n1-c1c(Cl)cccc1C(F)(F)F [Compound 169C]	50 to 100%	50 to 100%
CC(F)(F)Oc1ccccc1N1C(=O)CCS/C1=N\N=C\c1ccc(-c2ncn(-c3ccc(OC(F)(F)F)cc3)n2)cc1 [Compound 229C]	50 to 100%	50 to 100%
COc1cc(C)c(N2C(=O)CS/C2=N\N=C\c2ccc(-c3ncn(-c4ccc(OC(F)(F)F)cc4)n3)cc2)c(C)n1 [Compound 101C]	50 to 100%	50 to 100%
Cc1cccc(C)c1N1C(=O)CS/C1=N\N=C\c1ccc(-c2cnn(-c3ccc(OC(F)(F)F)cc3)c2)cc1 [Compound 104C]	50 to 100%	50 to 100%
CC1CCS/C(=N\N=C\c2ccc(-c3ncn(-c4ccc(OC(F)(F)F)cc4)n3)cc2)N1c1ccccc1C(C)(C)C (stereo not drawn) [Compound 222C]	50 to 100%	50 to 100%
FC(F)(F)Oc1ccc(-n2cnc(-c3ccc(/C=N/N=C4\SCCN4c4ccccc4OC(F)(F)F)cc3)n2)cc1 [Compound 153C]	50 to 100%	0%
COc1cccc(N2C(=O)CS/C2=N\N=C\c2ccc(-c3ncn(-c4ccc(OC(F)(F)F)cc4)n3)cc2)c1 [Compound 91C]	0%	0%
Cc1cs/c(=N\N=C\c2ccc(-c3ncn(-c4ccc(OC(F)(F)F)cc4)n3)cc2)n1-c1c(F)cccc1F [Compound 171C]	50 to 100%	50 to 100%
Cc1cs/c(=N\N=C\c2ccc(-c3ncn(-c4ccc(OC(F)(F)F)cc4)n3)cc2)n1-c1ccccc1OC(F)(F)F [Compound 170C]	50 to 100%	50 to 100%
CCOC(=O)c1ccc(N2CCCS/C2=N\N=C\c2ccc(-c3ncn(-c4ccc(OC(F)(F)F)cc4)n3)cc2)cc1 [Compound 207C]	0%	0%
CCC(C)c1ccccc1N1/C(=N/N=C/c2ccc(-c3ncn(-c4ccc(OC(F)(F)F)cc4)n3)cc2)SCC1(O)C(F)(F)F (stereo not drawn) [Compound 247C]	50 to 100%	50 to 100%
COc1ccc(N2C(=O)CS/C2=N\N=C\c2ccc(-c3ncn(-c4ccc(OC(F)(F)F)cc4)n3)cc2)cc1 [Compound 115C]	0%	0 to 50%
C/C(=N\N=C1/SCC(=O)N1c1ccccc1CC(C)C)c1ccc(-c2ncn(-c3ccc(OC(F)(F)F)cc3)n2)cc1 [Compound 122C]	50 to 100%	50 to 100%

Compound	mortality at 50 µg/cm2 [1]	mortality at 50 µg/cm2 [2]
Cc1cccc(C)c1N1C(=O)CS/C1=N\N=C\c1ccc(-c2ncn(-c3ccc(OC(F)(F)C(F)(F)F)cc3)n2)cc1 [Compound 100C]	50 to 100%	50 to 100%
CCCc1ccccc1N1C(=O)C(C)S/C1=N\N=C\c1ccc(-c2ncn(-c3ccc(OC(F)(F)F)cc3)n2)cc1 (stereo not drawn) [Compound 128C]	50 to 100%	50 to 100%
O=C1CS/C(=N\N=C\c2ccc(-c3ncn(-c4ccc(OC(F)(F)F)cc4)n3)cc2)N1c1ccccc1OC(F)(F)F [Compound 124C]	50 to 100%	50 to 100%
CC1(O)CS/C(=N\N=C\c2ccc(-c3ncn(-c4ccc(OC(F)(F)F)cc4)n3)cc2)N1c1ccccc1C1CCCC1 (stereo not drawn) [Compound 249C]	50 to 100%	50 to 100%
COc1ccc(N2C(=O)CS/C2=N\N=C\c2ccc(-c3ncn(-c4ccc(OC(F)(F)F)cc4)n3)cc2)c(C)c1 [Compound 114C]	50 to 100%	50 to 100%
CCC(C)c1ccccc1N1/C(=N/N=C/c2ccc(-c3ncn(-c4ccc(OC(F)(F)F)cc4)n3)cc2)SCCC1C (stereo not drawn) [Compound 220C]	50 to 100%	50 to 100%
O=C1CS/C(=N\N=C\c2ccc(-c3ncn(-c4ccc(OC(F)(F)F)cc4)n3)cc2)N1c1ccccc1OC(F)F [Compound 126C]	50 to 100%	50 to 100%
Fc1cccc(Cl)c1N1CCS/C1=N\N=C\c1ccc(-c2ncn(-c3ccc(OC(F)(F)F)cc3)n2)cc1 [Compound 143C]	50 to 100%	50 to 100%
CCc1cccnc1N1C(=O)CS/C1=N\N=C\c1ccc(-c2ncn(-c3ccc(OC(F)(F)F)cc3)n2)cc1 [Compound 123C]	50 to 100%	50 to 100%
CC(C)(C)c1ccccc1N1CCCS/C1=N\N=C\c1ccc(-c2ncn(-c3ccc(OC(F)(F)F)cc3)n2)cc1 [Compound 210C]	50 to 100%	50 to 100%
COc1ccc(/N=C(/N/N=C/c2ccc(-c3ncn(-c4ccc(OC(F)(F)C(F)(F)F)cc4)n3)cc2)SCC(=O)O)c(C)c1 [Compound 50C]	50 to 100%	50 to 100%
CC(C)c1ccccc1N1CCS/C1=N\N=C\c1ccc(-c2ncn(-c3ccc(C(F)(F)F)cc3)n2)cc1 [Compound 134C]	50 to 100%	50 to 100%
CCOc1cccc(OCC)c1N1C(=O)CS/C1=N\N=C\c1ccc(-c2ncn(-c3ccc(OC(F)(F)F)cc3)n2)cc1 [Compound 98C]	–	50 to 100%
Cc1cc(C)c(N2/C(=N/N=C/c3ccc(-c4ncn(-c5ccc(OC(F)(F)F)cc5)n4)cc3)SCC2C)c(C)c1 (stereo not drawn) [Compound 161C]	50 to 100%	50 to 100%
Cc1cs/c(=N\N=C\c2ccc(-c3ncn(-c4ccc(OC(F)(F)F)cc4)n3)cc2)n1-c1ccccc1C(C)C [Compound 176C]	50 to 100%	50 to 100%
Cc1cccc(C(C)C)c1N1C(=O)CS/C1=N\N=C\c1ccc(-c2ncn(-c3ccc(OC(F)(F)F)cc3)n2)cc1 [Compound 238C]	50 to 100%	50 to 100%
COc1ccc(N2/C(=N/N=C/c3ccc(-c4ncn(-c5ccc(OC(F)(F)F)cc5)n4)cc3)SCCC2C)c(C)c1 (stereo not drawn) [Compound 219C]	50 to 100%	50 to 100%
CCc1cc(OC)ccc1N1/C(=N/N=C/c2ccc(-c3ncn(-c4ccc(OC(F)(F)C(F)(F)F)cc4)n3)cc2)SCC1(C)O (stereo not drawn) [Compound 264C]	–	50 to 100%
